Test results reported in US9453026B2, “ACC inhibitors and uses thereof” (Gilead Apollo, Inc., priority 2011, dated 2016).
Where two headings read alike, the source gives them in different places.

Assays:
ACC2 = ACC2 (Homo sapiens, UniProt O00763); assay: In vitro ACC2 inhibition assay (ADP-Glo); assay type: biochemical
Method in brief: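 Enzyme (human ACC1 or ACC2) and compound, serially diluted 1:3 over 11 points from a 600 uM DMSO stock, were preincubated 15 min before substrate addition.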

C. albicans ATCC 90028 = assay: Anti-Fungal Activity Assay (broth microtiter MIC); assay type: cell-based; conditions: 3 replicates, test compounds read at 48 h
Protocol: (§1) Compounds of the present invention were evaluated in an Anti-Fungal Activity Assay. An exemplary procedure for the assay, which measures the susceptibility of various Candida species to anti-fungal compounds, follows. Compounds to be tested (including fluconazole and amphotericin B) were dissolved in DMSO to obtain a solution having a concentration of 1 mg/mL. […] All species were grown from frozen stock by directly plating on to freshly prepared Sabouraud Dextrose agar (BD, Difco) and incubated overnight in ambient air at 35° C. for 24 h. A direct suspension was prepared in RPMI 1640+MOPS (Lonza, Biowhittaker) by taking individual colonies from the overnight cultures using sterile swabs soaked in sterile saline. The concentration of the suspension was determined using pre-determined standard curves. […] The original CLSI guidelines focused on reading Candida MICs after 48 h of incubation. As reading after only 24 h offers a clear advantage of patient care, QC limits are being established for all drugs at 24 h. That being said there are no known interpretive breakpoints for amphotericin B at 24 h and the current fluconazole interpretive breakpoints are based on a 48 h reading. The MIC breakpoints for the Pharmaron test compounds were recorded at 48 h, and for the soraphen the 24 h time-point was added. All MIC determinations were achieved by visually comparing the growth found in the antibiotic challenged wells to that of the growth control.

C. krusei ATCC 6258 = assay: Anti-Fungal Activity Assay (broth microtiter MIC); assay type: cell-based; conditions: 3 replicates, test compounds read at 48 h
Protocol: as §1

[1] = tested on: C. parapsilosis ATCC 22019; assay: Anti-Fungal Activity Assay (broth microtiter MIC); assay type: cell-based; conditions: 3 replicates, test compounds read at 48 h
Protocol: as §1

fatty acid synthesis = assay: In Vivo Fatty Acid Synthesis Study ([C14]-acetate incorporated into rat liver tissue); conditions: oral, FIG. 8 and FIG. 16
Protocol: Compounds of the present invention were also assayed in an In Vivo Fatty Acid Synthesis Study as described by Harwood et al. “Isozyme-nonselective N-Substituted Bipiperidylcarboxamide Acetyl-CoA Carboxylase Inhibitors Reduce Tissue Malonyl-CoA Concentrations, Inhibit Fatty Acid Synthesis, and Increase Fatty Acid Oxidation in Cultured Cells and in Experimental Animals” Journal of Biological Chemistry (2008) 278, 37099-37111. An exemplary procedure for the assay, which measures the amount of radioactive [C^14]-acetate incorporated into rat liver tissue, follows.
Animals given food ad water ad libitum were treated orally at a volume of 1.0 mL/200 g body weight (rat) with either an aqueous solution containing 0.5% methylcellulose (vehicle), or an aqueous solution containing 0.5% methylcellulose plus test compound. One to four hours after compound administration, animals received an intraperitoneal injection of 0.5 mL of [C^14]-acetate (64 uCi/mL; […]). […] The pooled organic fractions were transferred to liquid scintillation vials, dried under nitrogen, dissolved in 7 mL of Aquasol liquid scintillation fluid, and assessed for radioactivity using a Beckman 6500 liquid scintillation counter. Results were recorded as disintigrations per minute (DPM) per milligram of tissue.

Sequence of ACC2 (O00763 whole entry, species assumed): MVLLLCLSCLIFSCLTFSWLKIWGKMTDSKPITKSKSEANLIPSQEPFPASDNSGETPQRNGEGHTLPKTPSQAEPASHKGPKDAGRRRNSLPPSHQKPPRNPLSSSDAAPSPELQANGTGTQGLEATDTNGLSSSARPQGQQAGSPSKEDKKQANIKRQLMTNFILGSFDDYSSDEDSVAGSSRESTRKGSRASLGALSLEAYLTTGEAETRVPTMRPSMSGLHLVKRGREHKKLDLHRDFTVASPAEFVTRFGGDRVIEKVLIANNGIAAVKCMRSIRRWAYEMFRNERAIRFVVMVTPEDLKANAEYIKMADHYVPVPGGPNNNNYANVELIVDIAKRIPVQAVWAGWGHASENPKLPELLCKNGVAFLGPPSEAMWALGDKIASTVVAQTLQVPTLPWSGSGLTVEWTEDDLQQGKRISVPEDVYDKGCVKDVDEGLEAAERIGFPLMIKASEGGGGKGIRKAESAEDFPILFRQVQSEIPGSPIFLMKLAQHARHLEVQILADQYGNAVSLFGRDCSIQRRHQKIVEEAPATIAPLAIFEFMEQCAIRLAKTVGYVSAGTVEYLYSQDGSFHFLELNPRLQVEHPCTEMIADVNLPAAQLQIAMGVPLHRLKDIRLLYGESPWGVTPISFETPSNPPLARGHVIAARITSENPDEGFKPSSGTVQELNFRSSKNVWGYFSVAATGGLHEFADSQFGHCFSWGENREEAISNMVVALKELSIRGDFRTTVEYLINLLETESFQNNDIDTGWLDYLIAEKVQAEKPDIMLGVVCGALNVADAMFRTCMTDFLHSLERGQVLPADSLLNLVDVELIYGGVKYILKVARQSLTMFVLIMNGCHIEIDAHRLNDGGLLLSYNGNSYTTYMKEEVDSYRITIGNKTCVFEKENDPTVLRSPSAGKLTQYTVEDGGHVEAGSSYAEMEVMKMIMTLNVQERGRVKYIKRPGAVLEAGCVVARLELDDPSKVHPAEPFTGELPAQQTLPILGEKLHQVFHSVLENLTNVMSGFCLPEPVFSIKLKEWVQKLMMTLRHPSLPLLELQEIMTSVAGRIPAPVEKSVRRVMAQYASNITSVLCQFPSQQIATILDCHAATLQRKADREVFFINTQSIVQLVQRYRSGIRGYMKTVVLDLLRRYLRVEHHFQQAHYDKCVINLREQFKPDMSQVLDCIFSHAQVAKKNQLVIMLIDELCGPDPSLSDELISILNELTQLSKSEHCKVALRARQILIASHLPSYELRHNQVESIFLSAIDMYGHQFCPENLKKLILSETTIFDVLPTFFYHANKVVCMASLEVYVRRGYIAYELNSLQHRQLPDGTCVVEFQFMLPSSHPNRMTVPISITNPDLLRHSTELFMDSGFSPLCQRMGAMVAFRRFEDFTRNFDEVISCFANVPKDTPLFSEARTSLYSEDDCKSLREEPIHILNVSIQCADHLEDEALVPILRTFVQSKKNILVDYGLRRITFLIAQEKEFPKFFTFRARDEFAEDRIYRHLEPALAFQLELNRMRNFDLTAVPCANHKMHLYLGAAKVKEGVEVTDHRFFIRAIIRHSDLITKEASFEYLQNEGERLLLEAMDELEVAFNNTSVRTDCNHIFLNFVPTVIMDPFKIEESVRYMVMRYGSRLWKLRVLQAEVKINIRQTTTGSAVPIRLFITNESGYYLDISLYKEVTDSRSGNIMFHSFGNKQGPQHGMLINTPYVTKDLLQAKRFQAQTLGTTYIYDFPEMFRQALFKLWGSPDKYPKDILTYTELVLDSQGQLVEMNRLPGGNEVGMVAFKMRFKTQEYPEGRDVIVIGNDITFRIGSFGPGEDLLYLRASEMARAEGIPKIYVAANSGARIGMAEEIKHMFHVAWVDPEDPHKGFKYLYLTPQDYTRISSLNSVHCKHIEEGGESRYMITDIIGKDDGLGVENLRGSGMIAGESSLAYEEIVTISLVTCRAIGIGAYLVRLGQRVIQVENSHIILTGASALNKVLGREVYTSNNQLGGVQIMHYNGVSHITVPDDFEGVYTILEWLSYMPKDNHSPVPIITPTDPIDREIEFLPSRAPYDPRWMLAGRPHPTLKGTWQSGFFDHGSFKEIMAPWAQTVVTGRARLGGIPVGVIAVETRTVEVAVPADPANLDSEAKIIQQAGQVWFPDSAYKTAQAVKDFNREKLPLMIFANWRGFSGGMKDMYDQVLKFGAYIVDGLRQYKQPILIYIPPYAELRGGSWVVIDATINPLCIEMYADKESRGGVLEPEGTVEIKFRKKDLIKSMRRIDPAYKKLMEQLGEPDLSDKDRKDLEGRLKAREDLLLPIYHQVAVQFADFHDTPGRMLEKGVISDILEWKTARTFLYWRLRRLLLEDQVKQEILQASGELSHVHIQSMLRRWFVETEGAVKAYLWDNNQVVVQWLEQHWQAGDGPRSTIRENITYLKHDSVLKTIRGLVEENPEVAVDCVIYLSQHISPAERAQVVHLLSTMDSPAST

SMILES: COc1ccccc1[C@H](Cn1c(=O)n(C(C)(C)C(=O)O)c(=O)c2c(C)c(-c3ncco3)sc21)OC1CCOCC1 [I-181, 2-[1-[2-(2-methoxyphenyl)-2-(oxan-4-yloxy)ethyl]-5-methyl-6-(1,3-oxazol-2-yl)-2,4-dioxo-1H,2H,3H,4H-thieno[2,3-d]pyrimidin-3-yl]-2-methylpropanoic acid]
- IC50 (ACC2): < 100 nM
- MIC (C. albicans ATCC 90028): >64 µg/mL
- MIC (C. albicans ATCC 90028; Candida albicans, ATCC90028, 48 h, read-out: MIC): > 64 µg/mL
- MIC (C. krusei ATCC 6258): >64 µg/mL
- MIC (C. krusei ATCC 6258; Pichia kudriavzevii, ATCC6258, 48 h, read-out: MIC): > 64 µg/mL
- MIC [1]: >64 µg/mL
- MIC ([1]; Lodderomyces parapsilosis, ATCC22019, 48 h, read-out: MIC): > 64 µg/mL
- ED50, fatty acid synthesis in rats (fatty acid synthesis): less than 0.3 mg/Kg body weight
